Target: rPlp (Plp) (Vibrio anguillarum, UniProt Q4ZHV5)
Test: TLC with fluorescence scanning of BODIPY-lysophosphatidylcholine formation
Format: biochemical
Settings: 20 uM substrate stock mixed 1:1 with enzyme; rPlp routinely 4 ug/ml; no divalent metal needed; labelled compound

Chain of rPlp (Plp) (Q4ZHV5 1-416 limits assumed): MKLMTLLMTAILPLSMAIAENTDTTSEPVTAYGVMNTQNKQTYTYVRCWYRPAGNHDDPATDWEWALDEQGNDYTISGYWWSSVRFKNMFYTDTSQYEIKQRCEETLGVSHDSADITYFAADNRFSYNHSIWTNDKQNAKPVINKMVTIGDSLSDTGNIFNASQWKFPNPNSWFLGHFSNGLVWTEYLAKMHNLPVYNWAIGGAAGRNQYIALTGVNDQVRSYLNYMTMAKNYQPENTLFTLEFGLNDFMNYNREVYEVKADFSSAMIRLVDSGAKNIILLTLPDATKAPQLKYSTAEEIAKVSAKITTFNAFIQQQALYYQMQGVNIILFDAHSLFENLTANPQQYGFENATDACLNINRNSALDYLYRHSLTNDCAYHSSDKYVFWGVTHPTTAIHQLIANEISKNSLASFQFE

## CCCCCCCCCC(=O)O[C@H](COCCCCCCCCCCCNC(=O)CCc1ccc2n1[B-](F)(F)[N+]1=C(C)C=C(C)C1=C2)COP(=O)([O-])OCC[N+](C)(C)C [BPC, 2-decanoyl-1-(O-(11-(4,4-difluoro-5,7-dimethyl-4-bora-3a,4a-diaza-s-indacene-3-propionyl)amino)undecyl)-sn-glycero-3-phosphocholine]
  TLC with fluorescence scanning of BODIPY-lysophosphatidylcholine formation: rPlp exhibited high activity against phosphatidylcholine, cleaving BPC to yield BLPC and free fatty acid
